Measurements published in ChEMBL document CHEMBL2021851, “Synthesis and SAR studies of imidazo-[1,2-a]-pyrazine Aurora kinase inhibitors with improved off-target kinase selectivity” (Bioorg Med Chem Lett, 2012).

Experiments:
Aurora kinase A = target: T1, Aurora kinase A (Homo sapiens, UniProt O14965); test: Inhibition of aurora A kinase using 5TAMRA-GRTGRRNSICOOH as substrate by fluorescent assay
T1 sequence (O14965 whole entry): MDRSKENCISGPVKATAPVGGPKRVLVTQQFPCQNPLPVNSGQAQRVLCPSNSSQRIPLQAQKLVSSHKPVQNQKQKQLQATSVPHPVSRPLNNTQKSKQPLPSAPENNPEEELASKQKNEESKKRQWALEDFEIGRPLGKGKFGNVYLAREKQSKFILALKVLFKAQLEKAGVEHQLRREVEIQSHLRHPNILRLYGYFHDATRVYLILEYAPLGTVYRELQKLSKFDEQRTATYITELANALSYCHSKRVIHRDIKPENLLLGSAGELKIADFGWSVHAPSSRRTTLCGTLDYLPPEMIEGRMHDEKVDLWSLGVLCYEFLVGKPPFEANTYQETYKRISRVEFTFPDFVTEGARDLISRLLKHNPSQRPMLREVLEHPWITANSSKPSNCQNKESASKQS

Aurora kinase B [1] = target: T2, Aurora kinase B (Homo sapiens, UniProt Q96GD4); test: Inhibition of aurora B kinase using 5TAMRA-GRTGRRNSICOOH as substrate by fluorescent assay
T2 sequence (Q96GD4 whole entry): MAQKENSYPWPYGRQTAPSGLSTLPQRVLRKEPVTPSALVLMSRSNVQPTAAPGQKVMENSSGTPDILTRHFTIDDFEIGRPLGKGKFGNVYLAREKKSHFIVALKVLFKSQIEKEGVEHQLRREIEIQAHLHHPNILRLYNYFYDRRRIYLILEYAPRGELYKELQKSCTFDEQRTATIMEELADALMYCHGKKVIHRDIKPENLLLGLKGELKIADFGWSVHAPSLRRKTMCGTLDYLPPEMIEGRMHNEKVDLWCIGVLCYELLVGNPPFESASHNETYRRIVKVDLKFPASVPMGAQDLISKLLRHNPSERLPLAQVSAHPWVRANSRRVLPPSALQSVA

Aurora kinase B [2] = target: T2, Aurora kinase B; test: Inhibition of aurora B kinase in human HCT116 cells assessed as inhibition of histone H3 phosphorylation incubated for 1 hr by Hoechst 33342 staining based microscopic analysis; assay type: cell-based, HCT-116
[3] = target: Vascular endothelial growth factor receptor 2 (Homo sapiens, UniProt P35968); test: Inhibition of VEGFR2
Chain of Vascular endothelial growth factor receptor 2 (P35968 whole entry): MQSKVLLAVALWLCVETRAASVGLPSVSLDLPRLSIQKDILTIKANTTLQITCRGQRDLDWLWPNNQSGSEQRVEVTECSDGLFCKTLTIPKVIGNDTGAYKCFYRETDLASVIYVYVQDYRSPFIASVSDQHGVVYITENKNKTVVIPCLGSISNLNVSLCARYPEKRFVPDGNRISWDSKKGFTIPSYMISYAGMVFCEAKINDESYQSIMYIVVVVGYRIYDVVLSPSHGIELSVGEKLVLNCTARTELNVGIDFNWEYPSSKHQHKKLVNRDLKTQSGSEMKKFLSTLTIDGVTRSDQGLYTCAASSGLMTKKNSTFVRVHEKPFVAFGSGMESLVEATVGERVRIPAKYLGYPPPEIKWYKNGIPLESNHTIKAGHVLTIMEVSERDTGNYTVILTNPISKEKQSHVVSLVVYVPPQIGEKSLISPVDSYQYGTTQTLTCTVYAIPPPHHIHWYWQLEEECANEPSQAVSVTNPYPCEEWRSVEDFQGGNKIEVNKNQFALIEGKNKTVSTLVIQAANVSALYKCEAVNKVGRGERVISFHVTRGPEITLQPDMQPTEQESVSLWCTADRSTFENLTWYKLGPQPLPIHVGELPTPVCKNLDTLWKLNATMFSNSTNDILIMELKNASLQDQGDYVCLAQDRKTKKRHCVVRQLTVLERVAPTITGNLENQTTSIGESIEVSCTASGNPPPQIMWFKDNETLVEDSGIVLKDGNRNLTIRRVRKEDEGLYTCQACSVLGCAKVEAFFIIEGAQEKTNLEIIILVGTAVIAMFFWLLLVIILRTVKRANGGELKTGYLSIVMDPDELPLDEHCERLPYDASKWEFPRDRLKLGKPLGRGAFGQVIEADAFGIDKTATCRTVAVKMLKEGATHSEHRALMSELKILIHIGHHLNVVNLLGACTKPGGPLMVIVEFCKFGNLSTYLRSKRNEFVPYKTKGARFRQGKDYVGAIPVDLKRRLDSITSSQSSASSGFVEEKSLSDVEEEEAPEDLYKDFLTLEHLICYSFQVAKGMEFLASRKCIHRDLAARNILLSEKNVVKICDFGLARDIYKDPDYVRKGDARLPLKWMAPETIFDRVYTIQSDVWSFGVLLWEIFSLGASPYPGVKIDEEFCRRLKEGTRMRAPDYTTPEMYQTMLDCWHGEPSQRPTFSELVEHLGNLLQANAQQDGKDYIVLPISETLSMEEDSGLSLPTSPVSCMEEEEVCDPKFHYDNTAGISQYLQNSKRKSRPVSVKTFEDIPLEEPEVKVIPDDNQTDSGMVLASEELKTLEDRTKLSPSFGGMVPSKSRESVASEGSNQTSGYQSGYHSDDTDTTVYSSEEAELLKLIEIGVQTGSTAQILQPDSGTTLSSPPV

[4] = target: Tyrosine-protein kinase Lck (Homo sapiens, UniProt P06239); test: Inhibition of LCK
Chain of Tyrosine-protein kinase Lck (P06239 whole entry): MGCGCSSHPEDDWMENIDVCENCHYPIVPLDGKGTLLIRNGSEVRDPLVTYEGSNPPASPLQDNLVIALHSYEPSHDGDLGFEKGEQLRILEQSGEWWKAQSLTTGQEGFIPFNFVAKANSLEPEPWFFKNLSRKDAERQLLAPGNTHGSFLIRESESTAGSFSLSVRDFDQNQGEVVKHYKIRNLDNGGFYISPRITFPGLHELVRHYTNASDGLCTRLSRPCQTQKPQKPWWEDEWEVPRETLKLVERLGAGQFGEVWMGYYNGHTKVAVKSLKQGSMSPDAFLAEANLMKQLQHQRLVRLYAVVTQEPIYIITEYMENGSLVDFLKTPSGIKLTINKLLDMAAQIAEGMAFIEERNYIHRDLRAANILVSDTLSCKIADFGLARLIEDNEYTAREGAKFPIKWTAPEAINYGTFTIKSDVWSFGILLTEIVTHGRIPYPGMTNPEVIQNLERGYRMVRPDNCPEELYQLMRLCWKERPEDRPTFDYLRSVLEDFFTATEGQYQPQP

[5] = target: T3, Serine/threonine-protein kinase Chk1 (Homo sapiens, UniProt O14757); test: Inhibition of Chk1
T3 sequence (O14757 whole entry): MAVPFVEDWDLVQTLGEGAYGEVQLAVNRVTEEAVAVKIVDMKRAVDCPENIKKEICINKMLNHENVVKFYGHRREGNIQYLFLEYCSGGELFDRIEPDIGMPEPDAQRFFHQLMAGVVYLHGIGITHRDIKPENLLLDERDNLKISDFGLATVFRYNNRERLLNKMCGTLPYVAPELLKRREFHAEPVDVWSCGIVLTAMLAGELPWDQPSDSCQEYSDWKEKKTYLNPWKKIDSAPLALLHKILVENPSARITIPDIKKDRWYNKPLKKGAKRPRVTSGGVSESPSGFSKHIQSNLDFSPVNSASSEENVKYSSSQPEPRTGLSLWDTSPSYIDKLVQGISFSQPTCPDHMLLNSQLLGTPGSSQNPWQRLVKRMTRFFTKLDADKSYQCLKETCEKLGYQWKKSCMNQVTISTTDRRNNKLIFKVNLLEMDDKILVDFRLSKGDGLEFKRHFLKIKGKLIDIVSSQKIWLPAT

[6] = target: T4, Interleukin-1 receptor-associated kinase 4 (Homo sapiens, UniProt Q9NWZ3); test: Inhibition of IRAK4
T4 sequence (Q9NWZ3 whole entry): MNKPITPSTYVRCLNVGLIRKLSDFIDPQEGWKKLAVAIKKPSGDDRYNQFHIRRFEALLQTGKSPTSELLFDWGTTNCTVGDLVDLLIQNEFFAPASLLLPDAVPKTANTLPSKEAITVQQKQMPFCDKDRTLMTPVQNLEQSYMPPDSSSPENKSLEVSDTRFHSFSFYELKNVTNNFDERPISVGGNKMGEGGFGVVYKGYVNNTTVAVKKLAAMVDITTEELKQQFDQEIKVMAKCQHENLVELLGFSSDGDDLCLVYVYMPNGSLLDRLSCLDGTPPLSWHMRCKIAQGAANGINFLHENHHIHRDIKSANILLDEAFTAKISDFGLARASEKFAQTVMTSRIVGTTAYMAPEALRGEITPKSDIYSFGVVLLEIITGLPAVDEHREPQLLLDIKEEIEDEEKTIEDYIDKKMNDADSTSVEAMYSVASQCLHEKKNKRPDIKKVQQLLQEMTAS

[7] = target: Ribosomal protein S6 kinase alpha-3 (Homo sapiens, UniProt P51812); test: Inhibition of RSK2
Chain of Ribosomal protein S6 kinase alpha-3 (P51812 whole entry): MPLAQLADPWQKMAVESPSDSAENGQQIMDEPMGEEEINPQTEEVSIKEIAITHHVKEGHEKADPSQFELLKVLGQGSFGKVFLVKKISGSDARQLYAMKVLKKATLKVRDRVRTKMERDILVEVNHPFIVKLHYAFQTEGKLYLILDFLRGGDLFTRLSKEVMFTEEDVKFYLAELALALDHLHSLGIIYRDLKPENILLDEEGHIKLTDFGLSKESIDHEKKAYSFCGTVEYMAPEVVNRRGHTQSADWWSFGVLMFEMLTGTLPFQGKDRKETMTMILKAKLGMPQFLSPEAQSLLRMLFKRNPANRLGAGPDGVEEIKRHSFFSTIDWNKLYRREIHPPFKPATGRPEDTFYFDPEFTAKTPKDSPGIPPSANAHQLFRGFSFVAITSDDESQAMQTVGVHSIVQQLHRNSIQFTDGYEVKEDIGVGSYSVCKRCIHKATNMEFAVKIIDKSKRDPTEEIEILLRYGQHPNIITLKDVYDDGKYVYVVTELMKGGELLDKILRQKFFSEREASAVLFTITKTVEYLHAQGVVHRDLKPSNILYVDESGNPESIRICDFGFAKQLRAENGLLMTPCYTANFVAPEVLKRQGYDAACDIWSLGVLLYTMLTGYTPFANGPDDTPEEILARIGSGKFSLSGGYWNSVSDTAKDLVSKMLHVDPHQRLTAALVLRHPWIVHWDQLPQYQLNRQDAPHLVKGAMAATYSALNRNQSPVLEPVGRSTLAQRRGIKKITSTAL

SMILES	IC50 (Aurora kinase A) [nM]	IC50 (Aurora kinase B [1]) [nM]	EC50 (Aurora kinase B [2]) [nM]	IC50 [3] [nM]	IC50 [4] [nM]	IC50 [5] [nM]	IC50 [6] [nM]	IC50 [7] [nM]
Cc1cn2c(-c3cn[nH]c3)cnc2c(Nc2cc(CN3CCCCC3)ns2)n1	≤ 4	≤ 13	50	4	12	20	56	360
Cc1cn2c(-c3cnn(CC(=O)O)c3)cnc2c(Nc2cc(CN3CCCCC3)ns2)n1	1830	363	–	–	–	–	–	–
Cc1cn2c(-c3cnn(CC(=O)O)c3)cnc2c(Nc2cc(CN3CCCC(C)C3)ns2)n1 (stereo unspecified)	836	146	–	–	–	–	–	–
Cc1cn2c(-c3cnn(CC(N)=O)c3)cnc2c(Nc2cc(CN3CCCCC3)ns2)n1	1570	28	> 1000	–	–	–	–	–
CNC(=O)Cn1cc(-c2cnc3c(Nc4cc(CN5CCCCC5)ns4)nc(C)cn23)cn1	> 3000	193	–	–	–	–	–	–
Cc1cn2c(-c3cnn(CC(=O)NCCC(C)C)c3)cnc2c(Nc2cc(CN3CCCCC3)ns2)n1	1800	44	> 1000	–	–	–	–	–
Cc1cn2c(-c3cnn(CC(=O)N(C)C)c3)cnc2c(Nc2cc(CN3CCCCC3)ns2)n1	> 3000	> 3000	–	–	–	–	–	–
Cc1cn2c(-c3cnn(CC(=O)NCCN(C)C)c3)cnc2c(Nc2cc(CN3CCCC(C)C3)ns2)n1 (stereo unspecified)	> 3000	761	–	–	–	–	–	–
Cc1cn2c(-c3cnn(CC(=O)N4CCOCC4)c3)cnc2c(Nc2cc(CN3CCCCC3)ns2)n1	> 3000	> 3000	–	–	–	–	–	–
Cc1cn2c(-c3cnn(CC(=O)NCc4ccccc4)c3)cnc2c(Nc2cc(CN3CCCC(C)C3)ns2)n1 (stereo unspecified)	21	≤ 13	129	–	–	–	–	–
Cc1cn2c(-c3cnn(CC(=O)Nc4ccccc4)c3)cnc2c(Nc2cc(CN3CCCC(C)C3)ns2)n1 (stereo unspecified)	34	51	327	–	–	–	–	–
Cc1cn2c(-c3cnn(CC(=O)N(C)Cc4ccccc4)c3)cnc2c(Nc2cc(CN3CCCC(C)C3)ns2)n1 (stereo unspecified)	1630	261	–	–	–	–	–	–
Cc1cn2c(-c3cnn(Cc4nc5ccccc5[nH]4)c3)cnc2c(Nc2cc(CN3CCCC(C)C3)ns2)n1 (stereo unspecified)	18	≤ 13	534	–	–	–	–	–
Cc1cn2c(-c3cnn(Cc4nc(-c5ccccc5)no4)c3)cnc2c(Nc2cc(CN3CCCCC3)ns2)n1	≤ 4	≤ 13	> 1000	–	–	–	–	–
Cc1cn2c(-c3cnn(CC(=O)NCc4ccncc4)c3)cnc2c(Nc2cc(CN3CCCC(C)C3)ns2)n1 (stereo unspecified)	2450	1110	–	–	–	–	–	–
Cc1cn2c(-c3cnn(CC(=O)NCc4ncco4)c3)cnc2c(Nc2cc(CN3CCCC(C)C3)ns2)n1 (stereo unspecified)	168	178	–	–	–	–	–	–
Cc1cn2c(-c3cnn(CC(=O)NCc4ccco4)c3)cnc2c(Nc2cc(CN3CCCC(C)C3)ns2)n1 (stereo unspecified)	213	70	–	–	–	–	–	–
Cc1cn2c(-c3cnn(CC(=O)NCc4cccs4)c3)cnc2c(Nc2cc(CN3CCCC(C)C3)ns2)n1 (stereo unspecified)	27	≤ 13	193	234	579	300	873	7700
Cc1cn2c(-c3cnn(CC(=O)Nc4ccccc4F)c3)cnc2c(Nc2cc(CN3CCCCC3)ns2)n1	198	35	388	–	–	–	–	–
Cc1cn2c(-c3cnn(CC(=O)Nc4cccc(F)c4)c3)cnc2c(Nc2cc(CN3CCCCC3)ns2)n1	340	≤ 13	892	–	–	–	–	–
Cc1cn2c(-c3cnn(CC(=O)Nc4ccc(F)cc4)c3)cnc2c(Nc2cc(CN3CCCCC3)ns2)n1	53	30	412	–	–	–	–	–
Cc1cn2c(-c3cnn(CC(=O)Nc4cccc(F)c4F)c3)cnc2c(Nc2cc(CN3CCCCC3)ns2)n1	122	≤ 13	58	481	> 3000	20	1420	4300

SMILES	IC50 (Aurora kinase A) [nM]	IC50 (Aurora kinase B [1]) [nM]	EC50 (Aurora kinase B [2]) [nM]	IC50 [3] [nM]	IC50 [4] [nM]	IC50 [5] [nM]	IC50 [6] [nM]	IC50 [7] [nM]
Cc1cn2c(-c3cnn(CC(=O)Nc4cc(F)cc(F)c4)c3)cnc2c(Nc2cc(CN3CCCCC3)ns2)n1	1220	94	2380	–	–	–	–	–
Cc1cn2c(-c3cnn(CC(=O)Nc4nccs4)c3)cnc2c(Nc2cc(CN3CCCC(C)C3)ns2)n1 (stereo unspecified)	100	≤ 13	> 1000	–	–	–	–	–
Cc1cn2c(-c3cnn(CC(=O)Nc4cccnn4)c3)cnc2c(Nc2cc(CN3CCCC(C)C3)ns2)n1 (stereo unspecified)	638	45	951	–	–	–	–	–
Cc1cn2c(-c3cnn(CC(=O)Nc4ccccn4)c3)cnc2c(Nc2cc(CN3CCCC(C)C3)ns2)n1 (stereo unspecified)	185	32	285	–	–	–	–	–
Cc1cn2c(-c3cnn(CC(=O)Nc4cccnc4)c3)cnc2c(Nc2cc(CN3CCCC(C)C3)ns2)n1 (stereo unspecified)	186	118	–	–	–	–	–	–
Cc1cn2c(-c3cnn(CC(=O)Nc4cc[n+]([O-])cc4)c3)cnc2c(Nc2cc(CN3CCCC(C)C3)ns2)n1 (stereo unspecified)	68	91	402	–	–	–	–	–
Cc1cn2c(-c3cnn(CC(=O)Nc4ccncc4O)c3)cnc2c(Nc2cc(CN3CCCC(C)C3)ns2)n1 (stereo unspecified)	239	282	–	–	–	–	–	–
Cc1cn2c(-c3cnn(CC(=O)Nc4cccc(F)n4)c3)cnc2c(Nc2cc(CN3CCCC(C)C3)ns2)n1 (stereo unspecified)	102	28	164	–	–	–	–	–
Cc1cn2c(-c3cnn(CC(=O)Nc4cccnc4F)c3)cnc2c(Nc2cc(CN3CCCC(C)C3)ns2)n1 (stereo unspecified)	753	81	110	–	–	–	–	–
Cc1cn2c(-c3cnn(Cc4noc(-c5ccccc5)n4)c3)cnc2c(Nc2cc(CN3CCCCC3)ns2)n1	≤ 4	≤ 13	> 1000	–	–	–	–	–
Cc1cn2c(-c3cnn(Cc4nc(-c5ccccc5)c[nH]4)c3)cnc2c(Nc2cc(CN3CCCCC3)ns2)n1	583	21	887	–	–	–	–	–
Cc1cn2c(-c3cnn(CC(=O)NCc4ccccc4F)c3)cnc2c(Nc2cc(CN3CCCCC3)ns2)n1	44	≤ 13	469	–	–	–	–	–
Cc1cn2c(-c3cnn(CC(=O)NCc4cccc(F)c4)c3)cnc2c(Nc2cc(CN3CCCCC3)ns2)n1	30	≤ 13	234	–	–	–	–	–
Cc1cn2c(-c3cnn(CC(=O)NCc4ccc(F)cc4)c3)cnc2c(Nc2cc(CN3CCCCC3)ns2)n1	40	≤ 13	416	–	–	–	–	–
Cc1cn2c(-c3cnn(CC(=O)NCc4cccc(F)c4F)c3)cnc2c(Nc2cc(CN3CCCCC3)ns2)n1	45	≤ 13	870	–	–	–	–	–
Cc1cn2c(-c3cnn(CC(=O)NCc4cc(F)cc(F)c4)c3)cnc2c(Nc2cc(CN3CCCCC3)ns2)n1	22	≤ 13	389	–	–	–	–	–
Cc1cn2c(-c3cnn(CC(=O)NCc4cccc(C(F)(F)F)c4)c3)cnc2c(Nc2cc(CN3CCCC(C)C3)ns2)n1 (stereo unspecified)	413	35	> 1000	–	–	–	–	–
Cc1cn2c(-c3cnn(CC(=O)NCc4ccc(C(F)(F)F)cc4)c3)cnc2c(Nc2cc(CN3CCCC(C)C3)ns2)n1 (stereo unspecified)	> 3000	175	–	–	–	–	–	–
Cc1cn2c(-c3cnn(CC(=O)NCc4cccc(N(C)C)c4)c3)cnc2c(Nc2cc(CN3CCCC(C)C3)ns2)n1 (stereo unspecified)	859	155	–	–	–	–	–	–
COc1cccc(CNC(=O)Cn2cc(-c3cnc4c(Nc5cc(CN6CCCC(C)C6)ns5)nc(C)cn34)cn2)c1 (stereo unspecified)	57	41	442	–	–	–	–	–
COc1ccc(CNC(=O)Cn2cc(-c3cnc4c(Nc5cc(CN6CCCC(C)C6)ns5)nc(C)cn34)cn2)cc1 (stereo unspecified)	1930	161	–	–	–	–	–	–
Cc1cn2c(-c3cnn(CC(=O)NCc4cccnc4)c3)cnc2c(Nc2cc(CN3CCCC(C)C3)ns2)n1 (stereo unspecified)	434	439	–	–	–	–	–	–
